In US6423753B1, “Use of colchinol derivatives as vascular damaging agents” (priority 1997, dated 2002):
Read-outs that look alike come from different tables or passages of the source.

Legend:
[1] = system: CaNT tumour; conditions: for % decrease in vascular volume: administered at 50 mg/kg, fluorescent dye technique; for MED mg/Kg body weight: minimum effective dose by the fluorescent dye technique; for MED (mg/kg body weight): other tubulin-binding agents, by fluorescent dye technique; for vascular-damaging effects: at Maximum Tolerated Dose (30 mg/kg), 30 mg/kg
[2] = Maximum tolerated dose (no deaths in three animals); format: in vivo; conditions: for MTD mg/Kg body weight: maximum tolerated dose, no deaths in three animals; for MTD: mouse, in vivo, other tubulin-binding agents, read-out: MTD (mg/kg body weight)
From the text: The phosphate compound was compared with the parent N-acetylcolchinol for the maximum tolerated dose (MTD) (no deaths in three animals), minimum effective dose (MED) measured by the fluorescent dye technique already described and the therapeutic window (MTD/MED).

[3] = compared with parent N-acetylcolchinol
[4] = system: Subcutaneous CaNT tumours; assay: Activity against tumour vasculature measured by radioactive tracer (86RbCl extraction, relative blood flow); format: in vivo, mice; conditions: dose of 125 mg/kg intraperitoneally
Protocol: Activity Against Tumour Vasculature Measured by Radioactive Tracer.
Subcutaneous CaNT tumours were initiated by injecting 0.05 ml of a crude tumour cell suspension, approximately 10^6 cells, under the skin overlying the rear dorsum of 12-16 week-old mice. The animals were selected for treatment after approximately 3-4 weeks, when their tumours reached a geometric mean diameter of 5.5-6.5 mm. Compounds were dissolved in sterile saline and injected intraperitoneally in a volume of 0.1 ml per 10 g body weight. Tumour perfusion was measured 6 hours after intraperitoneal administration in tumour, kidney, liver, skin muscle, gut and brain by the ^86RbCI extraction technique (Sapirstein, Amer J Physiol, 193, 161-168, 1958). Tissue radioactivity measured 1 minute after an intravenous injection of ^86RbCI was used to calculate relative blood flow as a proportion of cardiac output (Hill and Denekamp, Brit J Radiol, 55, 905-913, 1982). Five animals were used in control and treated groups. Results were expressed as a percentage of the blood flow in the corresponding tissues in vehicle treated animals.

## COc1cc2c(c(OC)c1OC)-c1ccc(OCC(=O)O)cc1C(NC(C)=O)CC2 (stereo not drawn) [Example 8, N-Acetyl-O-carboxymethylcolchinol]
[1]
  % decrease in vascular volume: 49%

## COc1cc2c(c(OC)c1OC)-c1cc([N+](=O)[O-])c(O)cc1C(NC(C)=O)CC2 (stereo not drawn) [Example 10, N-Acetyl-10-nitrocolchinol]
[1]
  % decrease in vascular volume: 28%

## COc1cc2c(c(OC)c1OC)-c1ccc(O)cc1[C@@H](NC(C)=O)CC2 [N-acetylcolchinol, reference compound]
[1]
  % decrease in vascular volume: 78%
  MED mg/Kg body weight: 30 mg/Kg body weight
[2]
  MTD mg/Kg body weight: 125 mg/Kg body weight

## COc1cc2c(c(OC)c1OC)-c1ccc(OC)c(=O)cc1[C@@H](NC(C)=O)CC2 [Colchicine, reference compound]
[1]
  MED (mg/kg body weight): 2.5 mg/kg body weight
[2]
  MTD: 5 mg/kg

## COc1cc2c(c(OC)c1OC)-c1ccc(O)cc1C(NC(=O)Nc1ccccc1)CC2 (stereo not drawn) [Example 4, N-(Phenylcarbamoyl) colchinol]
[1]
  % decrease in vascular volume: 37%

## COc1cc2c(c(OC)c1OC)-c1ccc(OP(=O)(O)O)cc1C(NC(C)=O)CC2 (stereo not drawn) [Example 1, N-Acetylcolchinol-O-phosphate]
[1]
  % decrease in vascular volume: 89%
  MED mg/Kg body weight: 50 mg/Kg body weight
[3]
  solubility: greater solubility
[2]
  MTD mg/Kg body weight: 750 mg/Kg body weight
[4]; measured 6 hours after administration, relative to vehicle treated animals
  decrease in tumour blood flow: 65%
[4]; normal tissues
  reduction in blood flow in skin, muscle, liver, kidney, gut or heart: no significant reduction

## COC(=O)COc1ccc2c(c1)C(NC(C)=O)CCc1cc(OC)c(OC)c(OC)c1-2 (stereo not drawn) [Example 7, N-Acetyl-O-methoxycarbonylmethylcolchinol]
[1]
  % decrease in vascular volume: 12%

## CC(=O)O[C@@]12CO[C@@H]1C[C@H](O)[C@@]1(C)C(=O)[C@H](O)C3=C(C)[C@@H](OC(=O)[C@H](O)[C@@H](NC(=O)OC(C)(C)C)c4ccccc4)C[C@@](O)([C@@H](OC(=O)c4ccccc4)[C@H]21)C3(C)C [Docetaxel, reference compound]
[1]
  vascular-damaging effects: No effect
  MED (mg/kg body weight): > 30 mg/kg body weight
[1]; listed as docetaxel
  vascular-damaging effects: no vascular-damaging effects
[2]
  MTD: 30 mg/kg

## COc1cc2c(c(OC)c1OC)-c1ccc(O)cc1C(NC(=O)OCc1ccccc1)CC2 (stereo not drawn) [Example 3, N-Benzyloxvcarbonylcolchinol]
[1]
  % decrease in vascular volume: 43%

## COc1cc2c(c(OC)c1OC)-c1ccc(OC3CCCC3)cc1C(NC(C)=O)CC2 (stereo not drawn) [Example 9, N-Acetyl-O-cyclopentylcolchinol]
[1]
  % decrease in vascular volume: 59%

## COc1cc2c(c(OC)c1OC)-c1ccc(O)cc1C(NS(=O)(=O)N(C)C)CC2 (stereo not drawn) [Example 6, N-Dimethylsulphamoylcolchinol]
[1]
  % decrease in vascular volume: 30%

## CCNC1CCc2cc(OC)c(OC)c(OC)c2-c2ccc(O)cc21 (stereo not drawn) [Example 2, N-Ethylcolchinol]
[1]
  % decrease in vascular volume: 38%

## COc1cc2c(c(OC)c1OC)-c1ccc(O)cc1C(NS(C)(=O)=O)CC2 (stereo not drawn) [Example 5, N-Mesylcolchinol]
[1]
  % decrease in vascular volume: 38%
